Experimental findings from patent US6121296A, “Transition-state inhibitors for nucleoside hydrolase and transferase reactions” (Albert Einstein College of Medicine of Yeshiva University, priority 1998, dated 2000) are described below.

One test concerns the target T1, nucleoside hydrolase (Crithidia fasciculata, UniProt Q27546).
T1 construct: nucleoside hydrolase was purified from C. fasciculata as described above; endogenous in cells; host or cells: Crithidia fasciculata cells grown in a 300-liter fermenter
T1 sequence (Q27546 1-315): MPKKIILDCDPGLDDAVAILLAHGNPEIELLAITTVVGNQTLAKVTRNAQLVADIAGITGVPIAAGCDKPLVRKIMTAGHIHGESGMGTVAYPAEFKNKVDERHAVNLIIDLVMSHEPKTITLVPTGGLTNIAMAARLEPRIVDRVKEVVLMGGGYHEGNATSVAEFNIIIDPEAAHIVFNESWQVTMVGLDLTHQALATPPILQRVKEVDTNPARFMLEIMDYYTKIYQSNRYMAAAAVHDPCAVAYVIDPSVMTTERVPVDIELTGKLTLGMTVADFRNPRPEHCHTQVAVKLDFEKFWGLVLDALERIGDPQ
As to the kind of experiment: Nucleoside hydrolase purified from C. fasciculata: substrate kinetics and inhibition (Table III). The format is biochemical. The note with it: for Substrate or inhibitor concentration (substrate activity limit; nucleoside concentration in parentheses): Table III lower part; for inhibition pattern: vs inosine; for Km / Vmax: Table III; for Km / Vmax / Vmax /Km: compound as substrate. How it is done: The assay volumes were […]. The reaction was terminated by the addition of […] of 1.0 M HCl. […] The color was developed at 95° C. for 8 minutes and the optical absorbance measured at 450 nm. Enzymatic activity was expressed as millimoles of reducing sugar formed per minute per milligram of protein. During the initial stages of purification a modified assay which removes excess protein was used. Protein solutions of 1-5 ml were added to 100 ml of the assay mixture and incubated for the desired time. The assay was terminated by the addition of […] of 0.1 M ZnSO4. Excess Zn^2+ was removed by the addition of […] of 0.1 M NaOH. After centrifugation, 250 ml of supernatant was removed and assayed for reducing sugar. […] Arsenate readily replaces phosphate in the reaction and the product ribose 1-arsenate rapidly hydrolazes to release ribose which is detected in the reducing sugar assay.
At other pH values, a mixed buffer system was used which contained 30 mM each of acetate. Mes, Pipes, Hepes, Bicine, and Ches were adjusted to the desired pH with HCl or NaOH. The reaction was initiated with a small volume of enzyme and the increase in absorbance recorded at 280 nm.
Assay mixtures of 19 ml contained the desired concentration of inosine and inhibitor(s) together with approximately 3×10^4 cpm of radioactive inosine in 50 mM Hepes or triethanolamine buffer, pH 7.3. […] Samples of […] were removed at the appropriate intervals and spotted on polyethyleneimine cellulose thin layer plates which had been previously spotted with 4 ml of a solution containing 2.2 mM each of inosine and hypoxanthine.
Reaction mixtures were incubated for 5-27 hours and samples analyzed on a 7.8 mm×30 cm C18 -HPLC column eluted with 5 or 10% methanol in H2 O, 4 ml/minute. Samples were detected by the absorbance at 257 nm. Substrate activity with deoxyinosine was also measured at 500 MHz by NMR. […] Proton NMR spectra were collected in sets of eight scans over 15 minutes at room temperature.
Apparent inhibition constants (Ki(app)) were determined from the relationship shown in the following equation:
Vo /Vi +(inosine±Km (1+I/Ki(app))/(inosine+Km)
where Vo and Vi are the initial reaction rates without and with inhibitor, respectively. Km is the Michaelis constant for inosine, I is inhibitor concentration and Ki(app) is the apparent dissociation constant for inhibitor. In cases where the inhibitor is competitive with respect to substrate, Ki(app) is the dissociation constant for the enzyme-inhibitor complex.

The next test has as its target IAG-nucleoside hydrolase (Trypanosoma brucei, UniProt Q57ZL6). As to the kind of experiment: Inhibition of IAG-nucleoside hydrolase, initial rates. The note with it: for inhibition at highest concentration tested: 80, 120, 120 and 160 μM II, III, IV and VI respectively, 75 μM inosine. How it is done:
The enzyme was purified to apparent homogeneity as determined by denaturing polyacrylamide gel electrophoresis (Parkin, (1996) J. Biol. Chem. 271, 21713-21719). Some of the studies used the T. brucei brucei enzyme which was overexpressed in E. coli.
Enzyme Assays. Initial rate measurements were accomplished at 30° C. in reaction mixtures containing 50 mM potassium phosphate, pH 7.5, or 50 mM Hepes, pH 8.0, and nitrophenylribose or inosine as substrates (Mazella, et al. (1996) J. Am. Chem. Soc. 118, 2111-2112). At pH 7.5 the product p-nitrophenylate anion is present at a concentration which gives a millimolar extinction coefficient of 9.3 cm^-1 at 400 nm. Reaction mixtures with nitrophenylribose as substrate were initiated by the addition of enzyme, and product formation was monitored by continuous recording at 400 nm. With inosine as substrate, the conversion to hypoxanthine was monitored continuously at 280 nm (Parkin, et al. (1991) J. Biol. Chem. 266, 20658-20665). […] The remainder of the inhibitors were analyzed at one fixed substrate concentration and variable inhibitor concentrations. […] The remainder of the inhibition constants were characterized by titration of assay mixtures containing a fixed concentration of substrate with variable inhibitor concentrations. […] For Ki determination at a fixed substrate concentration, this approach assumes that substrate and inhibitor compete for the catalytic site.
Inhibitors. Iminoribitol inhibitor were synthesized and purified according to the methods of Furneaux, et al. (Tetrahedron (1997) in press), characterized by NMR, dissolved in H2 O and stored at -20° C.

Another test deals with T2, IU-nucleoside hydrolase (Crithidia fasciculata, UniProt Q27546, P2A).
T2 construct: contained the coding region for the enzyme; made in house; host or cells: E. coli BL21 (DE3)pLysS, pET3d plasmid
T2 sequence (Q27546 whole entry P2A): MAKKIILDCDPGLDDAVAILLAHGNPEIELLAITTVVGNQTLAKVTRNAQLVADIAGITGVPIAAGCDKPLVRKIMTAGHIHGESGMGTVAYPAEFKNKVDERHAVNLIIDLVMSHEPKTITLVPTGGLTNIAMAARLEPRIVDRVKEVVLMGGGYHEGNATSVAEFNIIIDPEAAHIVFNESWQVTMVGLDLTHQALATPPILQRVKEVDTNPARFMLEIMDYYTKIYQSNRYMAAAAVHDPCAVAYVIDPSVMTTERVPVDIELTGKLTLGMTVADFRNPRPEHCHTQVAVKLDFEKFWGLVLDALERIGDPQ
Kind of test: biochemical. Type of test: biochemical, C. fasciculata. The conditions noted are these: for Ki: KI IU-nucleoside hydrolase, Table V. The text has this:
Enzymes. Inosine-uridine nucleoside hydrolase (IU-nucleoside hydrolase) was purified from extracts of E. coli strain BL21 (DE3)pLysS which contained the coding region for the enzyme isolated from C. fasciculata in a pET3d expression plasmid. The DNA coding for the enzyme was placed in the NcoI-BamHI site. This construct gives a Pro2Ala substitution which has no significant effect on the kinetic properties of the purified enzyme. The overexpressed enzyme was purified to apparent homogeneity as previously described (Gopaul, et al. (1996) Biochemistry 35, 5963-5970).
Enzyme Assays. Initial rate measurements were accomplished at 30° C. in reaction mixtures containing 50 mM potassium phosphate, pH 7.5, or 50 mM Hepes, pH 8.0, and nitrophenylribose or inosine as substrates (Mazella, et al. (1996) J. Am. Chem. Soc. 118, 2111-2112). At pH 7.5 the product p-nitrophenylate anion is present at a concentration which gives a millimolar extinction coefficient of 9.3 cm^-1 at 400 nm. Reaction mixtures with nitrophenylribose as substrate were initiated by the addition of enzyme, and product formation was monitored by continuous recording at 400 nm. With inosine as substrate, the conversion to hypoxanthine was monitored continuously at 280 nm (Parkin, et al. (1991) J. Biol. Chem. 266, 20658-20665). […] The remainder of the inhibitors were analyzed at one fixed substrate concentration and variable inhibitor concentrations. Inhibition constants for IAG-nucleoside hydrolase were established from full kinetic analysis with V and X as inhibitors. […] The remainder of the inhibition constants were characterized by titration of assay mixtures containing a fixed concentration of substrate with variable inhibitor concentrations. […] For Ki determination at a fixed substrate concentration, this approach assumes that substrate and inhibitor compete for the catalytic site.
Inhibitors. Iminoribitol inhibitor were synthesized and purified according to the methods of Furneaux, et al. (Tetrahedron (1997) in press), characterized by NMR, dissolved in H2 O and stored at -20° C. The compounds are enzymatically and chemically stable in H2 O and under conditions of the assay. IU-Nucleoside hydrolase is susceptible to slow-onset tight-binding inhibition under certain conditions (Horenstein & Schramm, (1993b) Biochemistry 32, 9917-9925, Boutellier, et al. (1994) Biochemistry, 33, 3994-4000). However, in the initial reaction rate conditions described here, only the rapidly reversible competition between substrate and inhibitor is being observed. Thus, the reported kinetic constants are dissociation constants which exclude slow-onset binding.

The mark [1] stands for this setting: apparent constant, single inosine concentration near Km, three inhibitor concentrations, read-out: Ki(app).

Entries after “also recorded” stand apart in the source; their conditions may differ. Like-named read-outs stand apart in the source and are kept apart here.

IAG-nucleoside hydrolase, sequence (Q57ZL6 entry or part of it): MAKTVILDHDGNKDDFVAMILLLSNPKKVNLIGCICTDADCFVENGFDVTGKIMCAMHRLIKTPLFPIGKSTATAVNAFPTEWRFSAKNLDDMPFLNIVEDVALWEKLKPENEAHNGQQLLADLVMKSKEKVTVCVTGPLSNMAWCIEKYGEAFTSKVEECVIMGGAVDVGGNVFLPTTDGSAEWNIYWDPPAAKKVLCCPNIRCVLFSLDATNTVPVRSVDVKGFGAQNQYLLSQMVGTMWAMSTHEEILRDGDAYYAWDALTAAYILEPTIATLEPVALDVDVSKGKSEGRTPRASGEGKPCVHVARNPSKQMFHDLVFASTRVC

As for `Nc1ncnc2c1ncn2[C@@H]1O[C@H](CO)C[C@H]1O` [3'-d-Adenosine], at nucleoside hydrolase, the Ki was found to be 7290 µM and the “Substrate or inhibitor concentration (substrate activity limit; nucleoside concentration in parentheses)” value is on record as less than 0.16.

In the case of `CSC[C@H]1O[C@@H](n2cnc3c(N)ncnc32)[C@H](O)[C@@H]1O` [5'-Methylthioadenosine], on nucleoside hydrolase, the Ki amounted to 5700 µM and the “Substrate or inhibitor concentration (substrate activity limit; nucleoside concentration in parentheses)” value was less than 0.0003.

As for `C[C@H]1O[C@@H](n2cnc3c(N)ncnc32)[C@H](O)[C@@H]1O` [5d-adenosine, 5'-Deoxyadenosine], the “substrate activity” value on nucleoside hydrolase is recorded as “Low rates of product formation”.

On to `C[C@H]1O[C@@H](n2cnc3c(=O)[nH]cnc32)[C@H](O)[C@@H]1O` [5d-inosine], for which, on nucleoside hydrolase, the “substrate activity” value is given as “Low rates of product formation”.

`Nc1ncnc2c1ccn2[C@@H]1O[C@H](CO)[C@@H](O)[C@H]1O` [7-Deazaadenosine, 7-deazaadenosine]: at nucleoside hydrolase, the Ki amounted to 2300 µM, the “rate of hydrolysis relative to the rate with inosine (detection level)” value is listed as < 3×10^-4, the “Substrate or inhibitor concentration (substrate activity limit; nucleoside concentration in parentheses)” value is reported as less than 0.0008 and the inhibition pattern entry is “competitive inhibitor”. Moreover, the “substrate activity” value at nucleoside hydrolase (listed as tubercidin) is on record as “not a substrate; also recorded: lack of substrate activity”.

In the case of `Nc1ncnc2c1ncn2[C@@H]1O[C@H](COP(=O)(O)O)[C@@H](O)[C@H]1O` [AMP], at nucleoside hydrolase, the Ki worked out at 44000 µM and the “Substrate or inhibitor concentration (substrate activity limit; nucleoside concentration in parentheses)” value was less than 0.01.

Consider `O=c1[nH]cnc2c([C@@H]3O[C@H](CO)[C@@H](O)[C@H]3O)n[nH]c12` [Formycin B], for which, at nucleoside hydrolase, the Ki was found to be 1960 µM and the “Substrate or inhibitor concentration (substrate activity limit; nucleoside concentration in parentheses)” value is given as less than 0.02.

For `O=c1[nH]cnc2nc[nH]c12` [Hypoxanthine], at nucleoside hydrolase, the Ki is 6200 ± 900 µM and the inhibition pattern result is reported as “slope-linear, competitive patterns”.

In the case of `O=[N+]([O-])c1cccc([C@@H]2N[C@H](CO)[C@@H](O)[C@H]2O)c1` [III], on IAG-nucleoside hydrolase, the Ki was more than 360 µM, the “Km /KI IAG-nucleoside hydrolase” value was less than 0.05 and the “inhibition at highest concentration tested” value was “NO inhibition was observed”. Further, the Ki on IU-nucleoside hydrolase was 7.5 ± 0.5 µM.

For `O=[N+]([O-])c1ccc([C@@H]2N[C@H](CO)[C@@H](O)[C@H]2O)cc1` [IV], on IAG-nucleoside hydrolase, the Ki was more than 360 µM, the “Km /KI IAG-nucleoside hydrolase” value is on record as less than 0.05 and the “inhibition at highest concentration tested” value is on record as “NO inhibition was observed”. Besides, on IU-nucleoside hydrolase, the Ki is 1.1 ± 0.1 µM.

On to `Nc1cccc([C@@H]2N[C@H](CO)[C@@H](O)[C@H]2O)c1` [IX], for which the Ki at IAG-nucleoside hydrolase worked out at 38 ± 4 µM; on IU-nucleoside hydrolase it was 0.051 ± 0.004 µM. Moreover, the “Km /KI IAG-nucleoside hydrolase” value at IAG-nucleoside hydrolase came to 0.47.

For `OC[C@H]1O[C@@H](n2cnc3c(O)ncnc32)[C@H](O)[C@@H]1O` [Inosine], at nucleoside hydrolase, the “Vmax /Km for inosine relative to adenosine” value is reported as 7.8 times, the Km was found to be 380 ± 30 µM, the maximum rate (Vmax) amounted to 50 ± 2 µmol/min/mg and the “Vmax /Km” value is 7.6×10^-4 M^-1 S^-1.

As for `OC[C@H]1O[C@@H](n2cnc3cncnc32)[C@H](O)[C@@H]1O` [Purine riboside], on nucleoside hydrolase, the “substrate activity” value is reported as “poor substrate” and the “Vmax /Km” value is 1.5×10^2 M^-1 S^-1.

Turning to `O=C[C@H](O)[C@H](O)[C@H](O)CO` [Ribose], at nucleoside hydrolase, the Ki is 700 ± 100 µM and the inhibition pattern entry is listed as “slope-linear, competitive patterns”.

Regarding `Cc1cn([C@H]2C[C@H](O)[C@@H](CO)O2)c(=O)[nH]c1=O` [Thymidine], at nucleoside hydrolase, the Ki is 7800 µM, the “substrate activity” value is listed as “no activity being detected” and the “Substrate or inhibitor concentration (substrate activity limit; nucleoside concentration in parentheses)” value is less than 0.0008. In addition, on nucleoside hydrolase (effect of the 2'-hydroxyl), the “apparent Vmax difference, 5-methyluridine vs thymidine” value is given as > 10^5.

`OC[C@H]1N[C@@H](c2ccc(F)cc2)[C@H](O)[C@@H]1O` [VIII]: on IAG-nucleoside hydrolase, the Ki came out at 205 ± 14 µM and the “Km /KI IAG-nucleoside hydrolase” value was determined as 0.088. Further, at IU-nucleoside hydrolase, the Ki was 0.057 ± 0.005 µM. In addition, on IU-nucleoside hydrolase (minimum of four substrate and three inhibitor concentrations), the inhibition pattern result is on record as “slope-linear competitive inhibitors”.

Consider `Nc1ncnc2c1ncn2C1CC(O)C(CO)O1` (stereo not drawn) [d-Adenosine], for which, at nucleoside hydrolase, the “Substrate or inhibitor concentration (substrate activity limit; nucleoside concentration in parentheses)” value is listed as less than 0.0006. For the same compound, the Ki on nucleoside hydrolase (setting [1]) worked out at 3200 µM.

For the compound `O=c1[nH]cnc2c1ncn2[C@H]1C[C@H](O)[C@@H](CO)O1` [d-Inosine], the “Substrate or inhibitor concentration (substrate activity limit; nucleoside concentration in parentheses)” value at nucleoside hydrolase is given as less than 0.0003. Further, the Ki at nucleoside hydrolase (setting [1]) is 2300 µM.

Turning to `O=[N+]([O-])c1ccc(O[C@@H]2O[C@H](CO)[C@@H](O)[C@H]2O)cc1` [nitrophenylribose, reference compound], at IU-nucleoside hydrolase (compound as substrate), the Km worked out at 64 ± 6 µM.

With Cytosine, at nucleoside hydrolase, the Km was 4700 µM, the Vmax is 36 ± 3 µmol/min/mg and the “Vmax /Km” value is 4.5 × 10^3 M^-1 S^-1.

For orientation: Km means the concentration of substrate that gives half-maximal velocity. Usually Vmax stands for the top rate of the reaction or transport when substrate is in excess.
